Assay results: US20260374792A1, “PHENYL-FREE BISCATIONIC QUATERNARY PHOSPHONIUM COMPOUNDS AS ANTIMICROBIAL AGENTS” (priority 2022, published 2026)

What was measured:
HA-MRSA = assay: MBEC, biofilm eradication, HA-MRSA; type: cell-based, Staphylococcus aureus; conditions: 24 hours, 37 °C, TSB
Description: (§1) A regrowth assay was used to establish the MBEC of a compound to evaluate the antibiofilm activity.
(§2) Biofilm eradication experiments were performed using a pegged-lid microtiter plate assay to determine the MBEC values for compounds of interest, as previously described. […] Sci. Rep. 2017, 7, 2003; and Raval, Y. S., Flurin, L., Mohamed, A., Greenwood-Quaintance, K. E., Beyenal, H., & Patel, R. In Vitro Activity of Hydrogen Peroxide and Hypochlorous Acid Generated by Electrochemical Scaffolds Against Planktonic and Biofilm Bacteria. Antimicrob Agents Chemother. 2021, 65, e01966-20. Briefly, […] of mid-log phase culture diluted to ca. 10^6 CFU/mL in tryptic soy broth (TSB) was added to wells of plat-bottom 96-well plates (Thermo Scientific, 266120) and covered with 96-pegged lid (Thermo Scientific, 445497). Plates were incubated to establish bacterial biofilms after incubation at 37 °C for 24 hours. The pegged lid was then removed, washed with PBS, and transferred to another 96-well plate containing 2-fold serial dilutions of the test compounds (the “challenge plate”). The total volume in each well was […], comprising of […] of compound diluted in water/DMSO, with a starting DMSO concentration of 2.5%, and […] of TSB. Plates were incubated statically at 37 °C for 24 hours. Next, the pegged lids were transferred to a fresh 96-well plate containing […] of TSB and incubated overnight at 37 °C. MBEC values were determined as the lowest test concentration that resulted eradicated biofilm (i.e., wells displaying no turbidity in the final plate).

E. faecalis = assay: MBEC, biofilm eradication, E. faecalis; type: cell-based, Enterococcus faecalis; conditions: 24 hours, 37 °C, TSB
Description: as §1, §2

A. baumannii [1] = assay: MBEC, biofilm eradication, A. baumannii; type: cell-based, Acinetobacter baumannii; conditions: 24 hours, 37 °C, TSB
Description: as §1, §2

P. aeruginosa = assay: MBEC, biofilm eradication, P. aeruginosa; type: cell-based, Pseudomonas aeruginosa; conditions: 24 hours, 37 °C, TSB
Description: as §1, §2

MSSA (SH1000) = assay: MIC against methicillin-susceptible S. aureus (MSSA); type: cell-based; conditions: Staphylococcus aureus; MSSA (SH1000); 72 hours, 37 °C; read-out: MIC
Description: (§3) The term “minimum inhibitory concentration (MIC)” means the lowest concentration of an antimicrobial agent that will inhibit the visible growth of a microorganism after overnight incubation. MIC values against bacteria, for example, the Gram-positive Staphylococcus aureus and Enterococcus faecalis and the Gram-negative Escherichia coli and Pseudomonas aeruginosa were determined by standard methods. See also P. A. Wayne, Methods for Dilution Antimicrobial Tests for Bacteria that Grow Aerobically; Approved Standard, Ninth Edition, 2012, CLSI Document M07-A9, Vol. 32 No. 2.
(§4) Biological testing procedures were adapted from prior work by Melander and coworkers. For all biological assays, laboratory strains of methicillin-susceptible Staphylococcus aureus MSSA (SH1000), Staphylococcus aureus CA-MRSA (USA300-0114), Staphylococcus aureus HA-MRSA (ATCC 33591), Escherichia coli (MC4100), Enterococcus faecalis (OG1RF), Acinetobacter baumannii (ATCC 17978), were grown with shaking at 37 °C overnight from freezer stocks in 5 mL of the indicated media: SH1000, OG1RF, MC4100, USA300-0114, and ATCC 17978 were grown in BDTM Mueller-Hinton broth (MHB), whereas ATCC 33591 was grown in BDTM tryptic soy broth (TSB). The inoculum were then streaked onto Mueller-Hinton agar (MHA) plates and grown overnight at 37 °C. From the plates, single colonies were selected, diluted into 50 mL of fresh media and grown overnight at 37 °C with shaking for use in the MIC assays. Optical density (OD) measurements were obtained using a SpectraMax iD3 plate reader (Molecular Devices, United States).
(§5) Compounds were serially diluted two-fold from stock solutions (1.0 mM) to yield twelve 100 μL test concentrations, wherein the starting concentration of dimethyl sulfoxide (DMSO) was 2.5%. Overnight S. aureus, E. faecalis, E. coli, A. baumannii, USA300-0114 (CA-MRSA), and ATCC 33591 (HA-MRSA) cultures were diluted to ca. 10^6 CFU/mL in MHB or TSB and regrown to mid-exponential phase, as determined by optical density recorded at 600 nm (OD600). All cultures were then diluted again to ca. 10^6 CFU/mL and 100 μL were inoculated into each well of a U-bottom 96-well plate (Corning, 351177) containing 100 μL of compound solution. Plates were incubated statically at 37 °C for 72 hours upon which wells were evaluated visually for bacterial growth. The MIC was determined as the lowest concentration of compound resulting in no bacterial growth visible to the naked eye, based on the highest value in three independent experiments. Aqueous DMSO controls were conducted as appropriate for each compound.
(§6) The prepared library of biscationic amphiphilic compounds was assessed for performance as antibacterial disinfectants by determining the minimum inhibitory concentration (MIC) for each against a panel of bacteria. The bacteria selected for the study were chosen to evaluate the broad spectrum antimicrobial performance of the QPCs, and therefore, included both Gram-positive and Gram-negative bacterial strains, including those with known antimicrobial resistance mechanisms. These bacteria include the Gram-positive strains of methicillin-susceptible Staphylococcus aureus [MSSA; SH1000], community-acquired methicillin-resistant Staphylococcus aureus [CA-MRSA; USA 300-0114], hospital-acquired methicillin-resistant Staphylococcus aureus [HA-MRSA; ATCC 33591] and the […], Escherichia coli [MC4100], Acinetobacter baumannii [ATCC 17498] and Pseudomonas aeruginosa [PAO1].

CA-MRSA (USA300-0114) = assay: MIC against community-acquired methicillin-resistant S. aureus (CA-MRSA); type: cell-based; conditions: Staphylococcus aureus, 72 h
Description: as §3, §4, §5, §6

HA-MRSA (ATCC 33591) = assay: MIC against hospital-acquired methicillin-resistant S. aureus (HA-MRSA); type: cell-based; conditions: Staphylococcus aureus, 72 h
Description: as §3, §4, §5, §6

E. faecalis (OG1RF) = assay: MIC against E. faecalis; type: cell-based; conditions: Enterococcus faecalis, 72 h
Description: as §3, §4, §5, §6

E. coli (MC4100) = assay: MIC against E. coli; type: cell-based; conditions: Escherichia coli, 72 hours, 37 °C
Description: as §3, §4, §5, §6

A. baumannii [2] = assay: MIC against A. baumannii; type: cell-based; conditions: Acinetobacter baumannii, 72 h
Description: as §3, §4, §5, §6

P. aeruginosa (PAO1) = assay: MIC against P. aeruginosa; type: cell-based; conditions: Pseudomonas aeruginosa; P. aeruginosa (PAO1); 72 hours, 37 °C; read-out: MIC
Description: as §3, §4, §5, §6

red blood cells = assay: Red Blood Cell (RBC) Lysis Assay (lysis20); type: cell-based, sheep; conditions: for Lysis20: concentration inducing 20% RBC lysis, sheep blood, 1 hour, 37 °C
Description: RBC lysis assays were performed on mechanically defibrinated sheep blood (Hemostat Labs: DSB030). An aliquot of 1.5 mL blood was placed into a microcentrifuge tube and centrifuged at 3,800 rpm for ten minutes. The supernatant was removed, and the cells were resuspended with 1 mL of phosphate-buffered saline (PBS). The suspension was centrifuged as described above, the supernatant was removed, and cells were resuspended 4 additional times in 1 mL PBS. The final cell suspension was diluted twentyfold with PBS. Compounds were serially diluted with PBS two-fold from stock solutions (1.0 mM) to yield 100 μL of twelve test concentrations on a flat-bottom 96-well plate (Corning, 351172), wherein the starting concentration of DMSO was 2.5%. To each of the wells, 100 μL of the twentyfold suspension dilution was then inoculated. TritonX (1% by volume) served as a positive control (100% lysis marker) and sterile PBS served as a negative control (0% lysis marker). Samples were then placed in an incubator at 37 °C and shaken at 200 rpm. After 1 hour, the samples were centrifuged at 3,800 rpm for ten minutes. The absorbance of the supernatant was measured with a UV spectrometer at a 540 nm wavelength. The concentration inducing 20% RBC lysis was then calculated for each compound based upon the absorbances of the TritonX and PBS controls. Aqueous DMSO controls were conducted as appropriate for each compound.
The potential cytotoxicity of the compounds was also considered with the evaluation of hemolysis (lysis20) assays with 20% lysis of red blood cells serving as an indicator of potentially toxic compounds. Finally, the bioactivity of these compounds were benchmarked against a commercial benzalkonium chloride source (BAC; 70% benzyldimethyldodecylammonium chloride, and 30% benzyldimethyltetradecylammonium chloride) as well as some previously reported disinfectant compounds from the inventors' groups; included were bisQPC ^PhP6P-10,10 as well as ^PhP2P-10,10 and 12(2)12. A detailed description of the experimental procedures used to evaluate bioactivity and hemolysis assays are described above.

panel of bacteria [3] = assay: MIC across the panel of bacteria (Gram-positive and Gram-negative); type: cell-based; conditions: for MIC: read-out: MIC values; for antimicrobial activity / bioactivity (in words): over the bacterial panel
Description: as §3, §4, §5, §6

panel of bacteria [4] = conditions: Gram-positive and Gram-negative pathogens; earlier generation compound; cited from earlier work

Compound	MBEC (HA-MRSA) [µM]	MBEC (E. faecalis) [µM]	MBEC (A. baumannii [1]) [µM]	MBEC (P. aeruginosa) [µM]	MIC (MSSA (SH1000)) [µM]	MIC (CA-MRSA (USA300-0114)) [µM]	MIC (HA-MRSA (ATCC 33591)) [µM]	MIC (E. faecalis (OG1RF)) [µM]	MIC (E. coli (MC4100)) [µM]	MIC (A. baumannii [2]) [µM]	MIC (P. aeruginosa (PAO1)) [µM]	hemolysis (lysis20) (in words) (red blood cells)	Lysis20 (red blood cells) [µM]	MIC (panel of bacteria [3]) [µM]	antimicrobial activity / bioactivity (in words) (panel of bacteria [3])	antimicrobial efficacy (in words, earlier work) (panel of bacteria [4])
CCCCCCCCCC[N+](C)(C)CCCCCCCCCC.[Cl-] [DDAC, didecyldimethylammonium chloride]	16	16	8	>250												
CCCCCCCCC[P+](CC[P+](CCCCCCCCC)(C1CCCCC1)C1CCCCC1)(C1CCCCC1)C1CCCCC1 [^CyP2P-9,9]					1	1	2	16	16	16	32	diminished hemolysis over the commercial BAC control	125	16		
CCCCCCCCCCC[P+](CC[P+](CCCCCCCCCCC)(C1CCCCC1)C1CCCCC1)(C1CCCCC1)C1CCCCC1 [^CyP2P-11,11]					1	1	1	8	4	4	8		8	1 to 8	single-digit micromolar activity	
CCCCCCCCCCCC[P+](CC)(CC)CC[P+](CC)(CC)CCCCCCCCCCCC [^EtP2P-12,12]					1	1	1	16	2	2	8		8		single-digit micromolar activity with just one exception	
CCCCCCCCCCC[P+](C)(C)CC[P+](C)(C)CCCCCCCCCCC [^MeP2P-11,11]					2	1	1	2	4	16	8		16			
CCCCCCCCCCCCCC[P+](C)(C)CC[P+](C)(C)CCCCCCCCCCC [^MeP2P-14,14]					8	4	8	32	32	125	63		8			
CCCCCCCCCCCCCCCC[P+](C)(C)CC[P+](C)(C)CCCCCCCCCCC [^MeP2P-16,16]					32	32	63	250	250	> 250	> 250		125			
CCCCCCCCCC[P+](CC[P+](CCCCCCCCCC)(c1ccccc1)c1ccccc1)(c1ccccc1)c1ccccc1 [^PhP2P-10,10, reference compound]					1	0.5	1	8	4	2	8		16			
CCCCCCCCCC[P+](CCCCCC[P+](CCCCCCCCCC)(c1ccccc1)c1ccccc1)(c1ccccc1)c1ccccc1 [^PhP6P-10,10, reference compound]					1	1	1	2	2	4	2		8	1 to 4		high degree of antimicrobial efficacy
